Source: patent US10124004B2, “Pyrido[3,4-d]pyrimidine derivative and pharmaceutically acceptable salt thereof” (Teijin Pharma Limited, priority 2015, dated 2018)
Like-named read-outs stand apart in the source and are kept apart here.

Tests used:
Type in all cases: biochemical
CDK2/cyclin A2 = molecular target: T1, CDK2/cyclin A2 (Homo sapiens, UniProt P24941); test: Human CDK2/cyclin A2 inhibitory activity (QS S Assist CDK2/Cyclin A2_FP Kit, IMAP fluorescence polarization)
T1 construct: purchased Carna Biosciences, Inc. QS S Assist CDK2/Cyclin A2_FP Kit
Procedure, shortened: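 Kinase activity read as fluorescence polarization (485/535 nm) after phosphorylated fluorescent substrate binds IMAP reagent (30 min, RT, dark). Enzyme (2.5 ng/well) reacted 60 min at RT with ATP/substrate/metal in HEPES pH 7.4 buffer with Tween 20 and DTT; no-enzyme wells define 0% activity; IC50 by curve fit.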

CDK4/cyclin D3 = molecular target: T2, CDK4/cyclin D3 (Homo sapiens, UniProt P11802); test: Human CDK4/cyclin D3 inhibitory activity (QS S Assist CDK4/Cyclin D3_FP Kit, IMAP fluorescence polarization)
T2 construct: purchased Carna Biosciences, Inc. QS S Assist CDK4/Cyclin D3_FP Kit
Procedure, shortened: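 IMAP fluorescence-polarization kinase assay with kit ATP/substrate/metal mix and 12.5 to 25 ng/well enzyme in 20 mM HEPES pH 7.4, 0.01% Tween20, 2 mM DTT. Reaction ran 45 min at room temperature, then binding reagent was added for 30 min in the dark. IC50 was taken from dose-response fits of percent inhibition.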

CDK6/cyclin D3 = CDK6/cyclin D3 (Homo sapiens, UniProt Q00534); test: Human CDK6/cyclin D3 inhibitory activity (off-chip mobility shift assay); conditions: 50% inhibitory concentration against CDK6/cyclin D3; 300 μM ATP, room temperature, five hours; read-out: CDK6 Activity Symbol
Description: Human CDK6/Cyclin D3 Inhibitory Activity
CDK6/cyclin D3 inhibitory activity was determined by the off-chip mobility shift assay (MSA). The MSA separates proteins from one another on the basis of a difference in electrophoretic mobility depending on the molecular weight or electric charge of the proteins. The kinase activity is determined by quantifying the degree of phosphorylation through electrophoretic analysis of a positive to negative change in electric charge of the substrate phosphorylated by the kinase.
Each solution was prepared with an assay buffer containing 20 mM HEPES (pH 7.5), 0.01% Triton X-100, and 2 mM dithiothreitol. A test compound solution was prepared by dilution of the test compound with dimethyl sulfoxide (DMSO) to a concentration 100 times higher than the final concentration and then 25-fold dilution with the assay buffer to a concentration four times higher than the final concentration. An ATP/substrate/metal solution was prepared to have a concentration four times higher than the final concentration. An enzyme solution was prepared to have a concentration twice higher than the final concentration. The final enzyme concentration was adjusted to an appropriate level on the basis of the enzyme activity signal and the inhibitory activity of a positive control compound.
The test compound solution (5 μL/well) and the ATP/substrate/metal solution (5 μL/well) were added to a 384-well plate, and the enzyme solution or the assay buffer (10 μL/well) was added to the plate (total amount of the reaction mixture: 20 μL/well) for initiation of enzymatic reaction. […] The reaction was performed at room temperature for five hours, and a termination buffer (QuickScout Screening Assist MSA, manufactured by Carna Biosciences, Inc.) (60 μL/well) was then added to the plate for termination of the reaction. Subsequently, the substrate peptide and the phosphorylated peptide in the reaction mixture were separated from each other and quantified with LabChip 3000 (manufactured by Caliper Lifesciences). The kinase reaction was evaluated by the product ratio (P/(P+S)) calculated from the peak height (S) of the substrate peptide and the peak height (P) of the phosphorylated peptide.
The percent inhibition of enzyme activity was calculated for each test compound (note: enzyme activity=100% in the case of addition of the enzyme solution and addition of DMSO instead of the test compound solution, whereas enzyme activity=0% in the case of addition of the assay buffer instead of the enzyme solution and addition of DMSO instead of the test compound solution). The percent inhibition of enzyme activity was fitted to a dose-response curve, to determine a 50% inhibitory concentration against CDK6/cyclin D3.
In each table, “+++” corresponds to IC50<10 nM, “++” 10 nM≤IC50<100 nM, and “+” 100 nM≤IC50.

[1] = 50% inhibitory concentration against CDK2/cyclin A2, given as class symbol
[2] = 50% inhibitory concentration against CDK4/cyclin D3, given as class symbol

Sequence of CDK6/cyclin D3 (Q00534 whole entry): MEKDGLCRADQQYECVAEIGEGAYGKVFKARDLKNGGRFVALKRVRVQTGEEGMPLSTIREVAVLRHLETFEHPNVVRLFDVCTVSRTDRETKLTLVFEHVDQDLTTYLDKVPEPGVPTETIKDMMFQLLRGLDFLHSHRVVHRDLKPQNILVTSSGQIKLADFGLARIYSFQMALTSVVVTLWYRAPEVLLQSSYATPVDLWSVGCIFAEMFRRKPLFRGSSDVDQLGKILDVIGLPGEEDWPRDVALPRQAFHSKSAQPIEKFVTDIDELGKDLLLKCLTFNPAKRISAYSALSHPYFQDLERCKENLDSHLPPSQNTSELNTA
Sequence of CDK6/cyclin D3 (P30281 whole entry partner): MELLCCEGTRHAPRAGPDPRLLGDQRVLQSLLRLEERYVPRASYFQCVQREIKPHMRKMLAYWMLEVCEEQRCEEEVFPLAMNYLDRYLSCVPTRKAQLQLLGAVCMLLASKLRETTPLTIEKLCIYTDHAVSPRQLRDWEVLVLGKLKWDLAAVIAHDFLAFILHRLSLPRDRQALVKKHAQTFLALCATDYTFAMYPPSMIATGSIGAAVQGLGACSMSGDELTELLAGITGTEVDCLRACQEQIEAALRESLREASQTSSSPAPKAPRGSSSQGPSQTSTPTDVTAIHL
T2 sequence (P11802 whole entry): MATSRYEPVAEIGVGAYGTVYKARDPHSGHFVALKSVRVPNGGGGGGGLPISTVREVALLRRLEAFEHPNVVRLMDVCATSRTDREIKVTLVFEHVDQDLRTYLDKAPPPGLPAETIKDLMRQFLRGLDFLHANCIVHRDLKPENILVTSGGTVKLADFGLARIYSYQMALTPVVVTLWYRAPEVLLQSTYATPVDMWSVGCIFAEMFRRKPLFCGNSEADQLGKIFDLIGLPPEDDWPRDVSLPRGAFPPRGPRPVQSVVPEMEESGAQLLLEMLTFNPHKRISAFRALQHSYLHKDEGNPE
T2 sequence (P30281 whole entry partner): as the sequence (P30281 whole entry partner) above

IC50 (CDK2/cyclin A2; [1]) [µM]	IC50 (CDK4/cyclin D3; [2]) [µM]	IC50 (CDK6/cyclin D3) [µM]	IC50 (CDK2/cyclin A2; Human CDK2/cyclin A2 inhibitory activity, read-out: CDK2 Activity symbol) [µM]	IC50 (CDK4/cyclin D3; Human CDK4/cyclin D3 inhibitory activity, read-out: CDK4 Activity symbol) [µM]	Compound
≥ 0.1	< 0.01	< 0.01			CC(C)Nc1nc([C@@H](C)O)cc2cnc(Nc3ccc4c(n3)CCN(CCO)C4)nc12 [Compound 929]
≥ 0.1	< 0.01	0.01 to 0.1			CCCNc1nc([C@@H](C)OC)cc2cnc(Nc3ccc(N4CCNCC4)nn3)nc12 [Compound 819]
		< 0.01	≥ 0.1	< 0.01	CC(C)Nc1nc([C@@H](C)O)cc2cnc(Nc3ccc(N4CCNCC4)cn3)nc12 [Compound 16]
≥ 0.1	< 0.01	0.01 to 0.1			C[C@@H](O)c1cc2cnc(Nc3ccc4c(n3)CCNC4)nc2c(N[C@H]2CCCOC2)n1 [Compound 778]
